Reference: PubChem BioAssay AID2060336 (Molecular Pharmacology Branch, DTP, NCI, 2025)

Test system: 958767-090-R-J1-PDC spheroid growth
Experiment: Anticancer human tumor 958767-090-R-J1-PDC patient-derived head and neck squamous carcinoma cell line growth inhibition [IpAb]
Conditions: spheroids with HUVEC and MSC; for IC50: curve of first compound; for viability, T/C: stronger effect = lower value
In short: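 Combinations with ipatasertib or abemaciclib were tested on tumour spheroids holding HUVEC (25%) and MSC (15%) alongside 60% malignant cells. Top concentration was at or near clinical Cmax (10 microM if undefined), descending in half-log steps.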

[1] = second compound 0.01 µM, first compound 0.00949 µM
[2] = second compound 0.01 µM, first compound 0.03 µM
[3] = second compound 0.01 µM, first compound 0.0949 µM
[4] = second compound 0.01 µM, first compound 0.3 µM
[5] = second compound 0.0316 µM, first compound 0.00949 µM
[6] = second compound 0.0316 µM, first compound 0.03 µM
[7] = second compound 0.0316 µM, first compound 0.0949 µM
[8] = second compound 0.0316 µM, first compound 0.3 µM
[9] = second compound 0.1 µM, first compound 0.00949 µM
[10] = second compound 0.1 µM, first compound 0.03 µM
[11] = second compound 0.1 µM, first compound 0.0949 µM
[12] = second compound 0.1 µM, first compound 0.3 µM
[13] = second compound 0.316 µM, first compound 0.00949 µM
[14] = second compound 0.316 µM, first compound 0.03 µM
[15] = second compound 0.316 µM, first compound 0.0949 µM
[16] = second compound 0.316 µM, first compound 0.3 µM
[17] = second compound 1 µM, first compound 0.00949 µM
[18] = second compound 1 µM, first compound 0.03 µM
[19] = second compound 1 µM, first compound 0.0949 µM
[20] = second compound 1 µM, first compound 0.3 µM
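Note: spheroids exposed to agents for 7 days.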
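Throughout, for viability, T/C: 100% = DMSO vehicle control wells.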

SMILES: Cn1ncc(Cl)c1-c1cc(C(=O)NC(CN)Cc2cccc(F)c2)sc1Cl (stereo not given) + CCN1CCN(Cc2ccc(Nc3ncc(F)c(-c4cc(F)c5nc(C)n(C(C)C)c5c4)n3)nc2)CC1
- IC50 (second compound 0.01 µM): 786 nM
- IC50 (second compound 0.0316 µM): 647 nM
- IC50 (second compound 0.1 µM): 614 nM
- IC50 (second compound 0.316 µM): 1080 nM
- IC50 (second compound 1 µM): 818 nM
- viability, T/C (second compound 0.01 µM, first compound 0.0316 µM): 89.7%
- viability, T/C (second compound 0.01 µM, first compound 0.1 µM): 76.1%
- viability, T/C (second compound 0.01 µM, first compound 0.316 µM): 58.8%
- viability, T/C (second compound 0.01 µM, first compound 1 µM): 45.4%
- viability, T/C (second compound 0.01 µM, first compound 3.16 µM): 33.5%
- viability, T/C (second compound 0.01 µM, first compound 10 µM): 0.14%
- viability, T/C (second compound 0.0316 µM, first compound 0.0316 µM): 75.1%
- viability, T/C (second compound 0.0316 µM, first compound 0.1 µM): 74.5%
- viability, T/C (second compound 0.0316 µM, first compound 0.316 µM): 62.6%
- viability, T/C (second compound 0.0316 µM, first compound 1 µM): 38.3%
- viability, T/C (second compound 0.0316 µM, first compound 3.16 µM): 25.5%
- viability, T/C (second compound 0.0316 µM, first compound 10 µM): 0.15%
- viability, T/C (second compound 0.1 µM, first compound 0.0316 µM): 73.2%
- viability, T/C (second compound 0.1 µM, first compound 0.1 µM): 65.9%
- viability, T/C (second compound 0.1 µM, first compound 0.316 µM): 51.5%
- viability, T/C (second compound 0.1 µM, first compound 1 µM): 46.1%
- viability, T/C (second compound 0.1 µM, first compound 3.16 µM): 30.3%
- viability, T/C (second compound 0.1 µM, first compound 10 µM): 0.18%
- viability, T/C (second compound 0.316 µM, first compound 0.0316 µM): 62.7%
- viability, T/C (second compound 0.316 µM, first compound 0.1 µM): 46.6%
- viability, T/C (second compound 0.316 µM, first compound 0.316 µM): 47.1%
- viability, T/C (second compound 0.316 µM, first compound 1 µM): 52.5%
- viability, T/C (second compound 0.316 µM, first compound 3.16 µM): 19.7%
- viability, T/C (second compound 0.316 µM, first compound 10 µM): 0.17%
- viability, T/C (second compound 1 µM, first compound 0.0316 µM): 83.7%
- viability, T/C (second compound 1 µM, first compound 0.1 µM): 63.3%
- viability, T/C (second compound 1 µM, first compound 0.316 µM): 62.3%
- viability, T/C (second compound 1 µM, first compound 1 µM): 50.9%
- viability, T/C (second compound 1 µM, first compound 3.16 µM): 27.9%
- viability, T/C (second compound 1 µM, first compound 10 µM): 1.92%

SMILES: Cn1cnc2c(F)c(Nc3ccc(Br)cc3Cl)c(C(=O)NOCCO)cc21 + CCN1CCN(Cc2ccc(Nc3ncc(F)c(-c4cc(F)c5nc(C)n(C(C)C)c5c4)n3)nc2)CC1
- IC50 (second compound 0.01 µM): 29.3 nM
- IC50 (second compound 0.0316 µM): 27 nM
- IC50 (second compound 0.1 µM): 12.6 nM
- IC50 (second compound 0.316 µM): 9.64 nM
- IC50 (second compound 1 µM): 124 nM
- viability, T/C [1]: 71%
- viability, T/C [2]: 49.4%
- viability, T/C [3]: 35.2%
- viability, T/C [4]: 34.5%
- viability, T/C (second compound 0.01 µM, first compound 0.949 µM): 30%
- viability, T/C (second compound 0.01 µM, first compound 3 µM): 23.2%
- viability, T/C [5]: 65%
- viability, T/C [6]: 47.7%
- viability, T/C [7]: 36.9%
- viability, T/C [8]: 29.7%
- viability, T/C (second compound 0.0316 µM, first compound 0.949 µM): 29.3%
- viability, T/C (second compound 0.0316 µM, first compound 3 µM): 19.7%
- viability, T/C [9]: 53.1%
- viability, T/C [10]: 41.9%
- viability, T/C [11]: 34.9%
- viability, T/C [12]: 34.1%
- viability, T/C (second compound 0.1 µM, first compound 0.949 µM): 26.7%
- viability, T/C (second compound 0.1 µM, first compound 3 µM): 23.5%
- viability, T/C [13]: 51.9%
- viability, T/C [14]: 41.9%
- viability, T/C [15]: 40.1%
- viability, T/C [16]: 36.1%
- viability, T/C (second compound 0.316 µM, first compound 0.949 µM): 28%
- viability, T/C (second compound 0.316 µM, first compound 3 µM): 21.2%
- viability, T/C [17]: 69.3%
- viability, T/C [18]: 67.2%
- viability, T/C [19]: 51.9%
- viability, T/C [20]: 42.8%
- viability, T/C (second compound 1 µM, first compound 0.949 µM): 44.5%
- viability, T/C (second compound 1 µM, first compound 3 µM): 37%

SMILES: CC(=O)c1c(C)c2cnc(Nc3ccc(N4CCNCC4)cn3)nc2n(C2CCCC2)c1=O + CCN1CCN(Cc2ccc(Nc3ncc(F)c(-c4cc(F)c5nc(C)n(C(C)C)c5c4)n3)nc2)CC1
- IC50 (second compound 0.01 µM): > 300 nM
- IC50 (second compound 0.0316 µM): > 300 nM
- IC50 (second compound 0.1 µM): 137 nM
- IC50 (second compound 0.316 µM): 265 nM
- IC50 (second compound 1 µM): > 300 nM
- viability, T/C (second compound 0.01 µM, first compound 0.000949 µM): 80.7%
- viability, T/C (second compound 0.01 µM, first compound 0.003 µM): 72.5%
- viability, T/C [1]: 66.5%
- viability, T/C [2]: 64.3%
- viability, T/C [3]: 59.6%
- viability, T/C [4]: 53.4%
- viability, T/C (second compound 0.0316 µM, first compound 0.000949 µM): 73.8%
- viability, T/C (second compound 0.0316 µM, first compound 0.003 µM): 75.5%
- viability, T/C [5]: 54.2%
- viability, T/C [6]: 53.8%
- viability, T/C [7]: 56.5%
- viability, T/C [8]: 49.7%
- viability, T/C (second compound 0.1 µM, first compound 0.000949 µM): 61.5%
- viability, T/C (second compound 0.1 µM, first compound 0.003 µM): 56.2%
- viability, T/C [9]: 65.7%
- viability, T/C [10]: 53.6%
- viability, T/C [11]: 44.4%
- viability, T/C [12]: 50.9%
- viability, T/C (second compound 0.316 µM, first compound 0.000949 µM): 54.2%
- viability, T/C (second compound 0.316 µM, first compound 0.003 µM): 50.7%
- viability, T/C [13]: 57.2%
- viability, T/C [14]: 52.9%
- viability, T/C [15]: 51.1%
- viability, T/C [16]: 47.9%
- viability, T/C (second compound 1 µM, first compound 0.000949 µM): 65.2%
- viability, T/C (second compound 1 µM, first compound 0.003 µM): 63.8%
- viability, T/C [17]: 60.6%
- viability, T/C [18]: 65.2%
- viability, T/C [19]: 62.2%
- viability, T/C [20]: 53.1%
